{
  "source": "patent US20200390755A1",
  "about": "“COMPOUND FOR TREATING NERVOUS SYSTEM DISEASES AND USE THEREOF” (SHAANXI MICOT TECHNOLOGY CO., LTD., priority 2018, published 2020)",
  "key": {"[1]": {"tested_on": "WT mice", "assay": "Rotarod experiment, WT mice", "assay_type": "in vivo, mouse", "conditions": "5 mg/kg/d intragastric", "description": "7-week-old N171-82Q HD male mice were paired with female B6C3F1/J hybrid mice to obtain newborn mice. From 21 days of age, male mice were housed in separate cages. 0.5 cm of mouse tail tissue was removed to extract DNA to determine the genotype of the mouse, such that N171-82Q HD mice and WT mice needed for the experiment were obtained. The mice were randomly divided into WT Vehicle group (normal mice), WT test compound group (administration group of normal mice, 5 mg/kg/d, n=10), HD Vehicle group (blank group of HD mice, n=15), HD test compound group (administration groups 1-5 of HD mice, 5 mg/kg/d, n=10). The test compound was suspended in 1% CMC-Na solution and administered by intragastric administration until the end of the study. The weights of the mice were measured every week. Behavioral tests were performed at 12 weeks, 18 weeks, and 24 weeks of age to investigate motor function. At 20 weeks, 3 samples of tissue from each group were used for western blotting and immunohistochemistry. At 24 weeks, MRI scans were performed. At the end of the study, the effect of the test compound on the mortality of mice was evaluated. The software Sigmaplot 13.0 was used for statistical analysis of the data, and the data of each group was expressed as mean standard error (x±SEM). Behavioral test results were analyzed using two-way (genotype and processing factor) ANOVA and post-ho tests, the comparison and statistics of weight data were performed using two-way (genotype and age) ANOVA of repeated measures, and mortality was counted using Kaplan-Meier method. Other measurement data were analyzed by one-way ANOVA. P<0.05 was considered statistically significant. The motor function of mice was evaluated by the rotarod experiment and three types of balance beam experiments. The shorter the time for mouse to cross the balance beam, and the longer the time to drop, the stronger the coordination ability of the mouse. […] The time the mouse remained on the rod, i.e., drop latent period, was recorded to indicate its motor coordination ability. […]"}, "[2]": {"tested_on": "WT mice", "assay": "High-altitude balance beam (5 mm) experiment 2, WT mice", "assay_type": "in vivo, mouse", "conditions": "5 mg/kg/d intragastric", "description": "7-week-old N171-82Q HD male mice were paired with female B6C3F1/J hybrid mice to obtain newborn mice. From 21 days of age, male mice were housed in separate cages. 0.5 cm of mouse tail tissue was removed to extract DNA to determine the genotype of the mouse, such that N171-82Q HD mice and WT mice needed for the experiment were obtained. The mice were randomly divided into WT Vehicle group (normal mice), WT test compound group (administration group of normal mice, 5 mg/kg/d, n=10), HD Vehicle group (blank group of HD mice, n=15), HD test compound group (administration groups 1-5 of HD mice, 5 mg/kg/d, n=10). The test compound was suspended in 1% CMC-Na solution and administered by intragastric administration until the end of the study. The weights of the mice were measured every week. Behavioral tests were performed at 12 weeks, 18 weeks, and 24 weeks of age to investigate motor function. At 20 weeks, 3 samples of tissue from each group were used for western blotting and immunohistochemistry. At 24 weeks, MRI scans were performed. At the end of the study, the effect of the test compound on the mortality of mice was evaluated. The software Sigmaplot 13.0 was used for statistical analysis of the data, and the data of each group was expressed as mean standard error (x±SEM). Behavioral test results were analyzed using two-way (genotype and processing factor) ANOVA and post-ho tests, the comparison and statistics of weight data were performed using two-way (genotype and age) ANOVA of repeated measures, and mortality was counted using Kaplan-Meier method. Other measurement data were analyzed by one-way ANOVA. P<0.05 was considered statistically significant. The motor function of mice was evaluated by the rotarod experiment and three types of balance beam experiments. […] If the time for crossing the beams was greater than 60 seconds, it was recorded as 60 seconds. a square balance beam with a length of 80 cm and a width of 5 mm was place at a height of about 50 cm from the ground. […]"}},
  "data": [
    {"smiles": "O=c1cc(-c2ccc(N3CCCCC3)cc2)oc2c(O)c(O)ccc12", "note": "[Example 1, 7,8-dihydroxy-2-(4-(piperidin-1-yl)phenyl)-4H-chromen-4-one]", "values": [
      {"measurement": "Time to drop (drop latent period), rotarod", "setting": "[1]; 12 w", "result": "98.33 ± 30.03", "unit": "s"},
      {"measurement": "Time to drop (drop latent period), rotarod", "setting": "[1]; 18 w", "result": "78.97 ± 23.84", "unit": "s"},
      {"measurement": "Time to drop (drop latent period), rotarod", "setting": "[1]; 24 w", "result": "73.72 ± 18.25", "unit": "s"},
      {"measurement": "Time for crossing the beams, high-altitude balance beam (5 mm)", "setting": "[2]; 12 w", "result": "11.64 ± 4.20", "unit": "s"},
      {"measurement": "Time for crossing the beams, high-altitude balance beam (5 mm)", "setting": "[2]; 18 w", "result": "9.91 ± 3.05", "unit": "s"},
      {"measurement": "Time for crossing the beams, high-altitude balance beam (5 mm)", "setting": "[2]; 24 w", "result": "14.18 ± 7.07", "unit": "s"}
    ]}
  ]
}
